Among the test systems are NCI-H226; IGROV-1; LOX IMVI; A498; SR; ACHN; SF-268; A549; UACC-62; MDA-MB-231; HT-29; CAKI-1; BT-549; HOP-92; M14; PC-3; SK-OV-3; K562; SF-539; KM12.
What all share (test): NCI anticancer screen, dose series, 48 h

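Step 1: Grow cells in 96-well plates. Step 2: Expose to compound for 48 hours at 5 concentrations. Step 3: Interpolate endpoints linearly; if unreached, use highest concentration. The concentration for 50% growth inhibition is given as GI50.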 Active and inactive are the calls of the source. No stated cut-off is given here; in the data, active = GI50 up to about 1.1 µM and inactive = higher. Where only a bound is given, the exact number is not on record here.

For `Clc1ccc(-c2nnc(-c3cccc4ccccc34)o2)cc1Cl`, the GI50 was > 100 µM (inactive) in the assay with NCI-H226; 4.93 µM (inactive) in the assay on IGROV-1; > 100 µM (inactive) in the assay on LOX IMVI; > 100 µM (inactive) with A498; 40.3 µM (inactive) in the assay on SR; > 100 µM (inactive) with ACHN. Also, the GI50 in the assay with SF-268, in the assay on A549, in the assay on UACC-62, in the assay with MDA-MB-231, in the assay with HT-29 and in the assay with CAKI-1 was > 100 µM (inactive) throughout. The GI50 is > 100 µM (inactive) in the assay on BT-549; 17.6 µM (inactive) in the assay with HOP-92; > 100 µM (inactive) in the assay with M14; > 100 µM (inactive) in the assay on PC-3; > 100 µM (inactive) in the assay with SK-OV-3; > 100 µM (inactive) with K562. Also, the GI50 in the assay with SF-539 and with KM12 was > 100 µM (inactive) throughout.
Turning to `O=[N+]([O-])c1cc(F)ccc1Sc1ccccc1`, the GI50 in the assay with NCI-H226, in the assay with IGROV-1, with LOX IMVI, in the assay with A498, in the assay with SR and in the assay on ACHN was > 10 µM (inactive) throughout. Moreover, the GI50 with SF-268, in the assay on A549, with UACC-62, in the assay on MDA-MB-231, in the assay on HT-29 and in the assay with CAKI-1 was > 10 µM (inactive) in each case. The GI50 with BT-549, with HOP-92, in the assay with M14, with PC-3, in the assay on SK-OV-3 and with K562 was > 10 µM (inactive) throughout. For the same compound, the GI50 in the assay with SF-539 and in the assay on KM12 was > 10 µM (inactive) each time.
As for `COc1ccc2c(c1)NC1(CCN(CCCC(=O)c3ccc(F)cc3)CC1)N=N2`, the GI50 was 22 µM (inactive) in the assay on NCI-H226; 21 µM (inactive) with IGROV-1; 18.7 µM (inactive) with LOX IMVI; 28.4 µM (inactive) in the assay on A498; 15.7 µM (inactive) with SR; 27.5 µM (inactive) with ACHN. Also, the GI50 in the assay with SF-268 is 41.8 µM (inactive); in the assay with A549, 36.4 µM (inactive); with UACC-62, 20.9 µM (inactive); in the assay with MDA-MB-231 it was 22.5 µM (inactive); in the assay with HT-29, 24.6 µM (inactive); with CAKI-1, 29.6 µM (inactive). Besides, the GI50 was 26.4 µM (inactive) with BT-549; 29.9 µM (inactive) in the assay on HOP-92; 13.7 µM (inactive) in the assay on M14; 23.1 µM (inactive) with PC-3; 33.4 µM (inactive) with SK-OV-3; 19.4 µM (inactive) with K562. The GI50 with SF-539 is 19.8 µM (inactive); in the assay with KM12 it was 20.1 µM (inactive).
Turning to `CCCCc1ccc(Nc2nc3c(ncn3C3OC(COC(C)=O)C(OC(C)=O)C3OC(C)=O)c(=O)[nH]2)cc1` (stereo not given), the GI50 with NCI-H226 is 21.1 µM (inactive); in the assay on IGROV-1 it was 17.5 µM (inactive); in the assay on LOX IMVI, 18.5 µM (inactive); with A498 it was > 100 µM (inactive); in the assay on SR, 13.5 µM (inactive); in the assay on ACHN, 65 µM (inactive). The GI50 was 19.4 µM (inactive) with SF-268; 92.7 µM (inactive) in the assay with A549; 19 µM (inactive) with UACC-62; 16.7 µM (inactive) in the assay with MDA-MB-231; 19.1 µM (inactive) with HT-29; > 100 µM (inactive) in the assay with CAKI-1. Besides, the GI50 is 17.8 µM (inactive) in the assay on BT-549; 16.1 µM (inactive) with HOP-92; 20.6 µM (inactive) in the assay with M14; 19.7 µM (inactive) in the assay with PC-3; 27 µM (inactive) in the assay on SK-OV-3; 15.1 µM (inactive) in the assay on K562. Also, the GI50 in the assay on SF-539 is 26.2 µM (inactive); in the assay on KM12, 18.4 µM (inactive).
Take `COc1cc(OC)cc(Oc2nc3ccccc3nc2C(F)(F)F)c1`: the GI50 in the assay on NCI-H226 is > 100 µM (inactive); with IGROV-1, 5.89 µM (inactive); in the assay with LOX IMVI, > 100 µM (inactive); in the assay on A498, 22.9 µM (inactive); with SR it was 6.1 µM (inactive); in the assay with ACHN, > 100 µM (inactive). For the same compound, the GI50 in the assay with SF-268 was 68.4 µM (inactive); with A549 it was > 100 µM (inactive); in the assay on UACC-62, > 100 µM (inactive); in the assay on MDA-MB-231, 14.7 µM (inactive); in the assay on HT-29, > 100 µM (inactive); in the assay on CAKI-1, > 100 µM (inactive). Moreover, the GI50 was > 100 µM (inactive) in the assay on BT-549; 42 µM (inactive) with HOP-92; 53.8 µM (inactive) with M14; 89.7 µM (inactive) in the assay with PC-3; > 100 µM (inactive) with SK-OV-3; 9.25 µM (inactive) with K562. Further, the GI50 with SF-539 was 52.5 µM (inactive); with KM12 it was > 100 µM (inactive).
On to `Cc1ccc2c(c1)CC1(C2=O)[C@H](c2ccccc2)C2C(=O)c3ccc(C)cc3C2[C@H]1c1ccccc1` (stereo not given in full), for which the GI50 in the assay on NCI-H226 was > 100 µM (inactive); in the assay with IGROV-1, > 100 µM (inactive); in the assay on LOX IMVI it was > 100 µM (inactive); in the assay on A498 it was > 100 µM (inactive); in the assay on SR it was 36.9 µM (inactive); with ACHN, > 100 µM (inactive). Further, the GI50 in the assay on SF-268, in the assay with A549, in the assay on UACC-62, with MDA-MB-231, with HT-29 and with CAKI-1 was > 100 µM (inactive) throughout. Besides, the GI50 was > 100 µM (inactive) in the assay on BT-549; > 100 µM (inactive) in the assay on HOP-92; > 100 µM (inactive) in the assay on M14; 37.8 µM (inactive) in the assay on PC-3; > 100 µM (inactive) in the assay with SK-OV-3; 30.7 µM (inactive) with K562. For the same compound, the GI50 with SF-539 and with KM12 was > 100 µM (inactive) each time.
Take `Nc1nc(-c2ccccc2)c(Cl)c(-c2cc(Cl)ccc2O)n1`: the GI50 in the assay on NCI-H226 was 24.7 µM (inactive); in the assay on IGROV-1, 19.4 µM (inactive); in the assay with LOX IMVI it was 21.2 µM (inactive); with A498 it was 34.6 µM (inactive); with SR, > 100 µM (inactive); with ACHN it was 8.89 µM (inactive). Also, the GI50 with SF-268 is 18.3 µM (inactive); in the assay on A549 it was 19.5 µM (inactive); in the assay on UACC-62, 50.8 µM (inactive); in the assay on MDA-MB-231, 48.5 µM (inactive); in the assay on HT-29, 49.2 µM (inactive); in the assay on CAKI-1 it was 20.5 µM (inactive). The GI50 in the assay with BT-549 is 20.4 µM (inactive); with HOP-92, 39.5 µM (inactive); in the assay on M14, > 100 µM (inactive); with PC-3, 36.1 µM (inactive); in the assay with SK-OV-3, 17.3 µM (inactive); in the assay on K562, > 46.5 µM (inactive). Further, the GI50 is 25.1 µM (inactive) in the assay with SF-539 and 16.7 µM (inactive) with KM12.
On to `N#CC1(C2SCC[S+]2[O-])C2=C(C(=O)c3ccccc3C2=O)N2CCCC21` (stereo not given), for which the GI50 with NCI-H226 is 3.66 µM (inactive); in the assay with IGROV-1, 1.75 µM (inactive); with LOX IMVI it was 0.986 µM (active); in the assay with A498 it was 4.07 µM (inactive); with SR, 0.935 µM (active); in the assay on ACHN, 5.52 µM (inactive). In addition, the GI50 is 3.01 µM (inactive) in the assay on SF-268; 2.1 µM (inactive) in the assay on A549; 2.85 µM (inactive) in the assay with UACC-62; 2.17 µM (inactive) in the assay on MDA-MB-231; 3.59 µM (inactive) in the assay on HT-29; 4.42 µM (inactive) in the assay with CAKI-1. The GI50 is 2.29 µM (inactive) in the assay with BT-549; 3.85 µM (inactive) in the assay with HOP-92; 1.17 µM (inactive) in the assay on M14; 1.88 µM (inactive) with PC-3; 15.3 µM (inactive) in the assay with SK-OV-3; 3.38 µM (inactive) in the assay on K562. Further, the GI50 in the assay with SF-539 is 3 µM (inactive); in the assay with KM12, 3.02 µM (inactive).
Regarding `CC[C@]1(O)C[C@H]2CN(CCc3c([nH]c4ccccc34)[C@@](C(=O)OC)(c3cc4c(cc3OC)N(C)[C@H]3[C@@](O)(C(=O)OC)[C@H](OC(C)=O)[C@]5(CC)C=CCN6CC[C@]43[C@@H]65)C2)C1`, the GI50 was 0.00115 µM (active) in the assay with NCI-H226; 0.00129 µM (active) in the assay with IGROV-1; 0.000538 µM (active) with LOX IMVI; 0.00252 µM (active) with A498; 0.000425 µM (active) with SR; 0.00849 µM (active) with ACHN. Besides, the GI50 with SF-268 is 0.000986 µM (active); in the assay with A549, 0.00157 µM (active); in the assay on UACC-62, 0.000373 µM (active); in the assay on MDA-MB-231, 0.000991 µM (active); in the assay on HT-29, 0.000408 µM (active); in the assay on CAKI-1, 0.00706 µM (active). Further, the GI50 in the assay with BT-549 was 0.00126 µM (active); in the assay with HOP-92, 0.00227 µM (active); in the assay with M14, 0.000762 µM (active); in the assay with PC-3 it was 0.000412 µM (active); in the assay with SK-OV-3 it was 0.000867 µM (active); in the assay with K562 it was 0.000508 µM (active). The GI50 in the assay on SF-539 is 0.000605 µM (active); in the assay with KM12, 0.000493 µM (active).
As for `CCc1nc(N)nc(N)c1-c1ccc(N(C)Cc2ccccc2)c([N+](=O)[O-])c1`, the GI50 with NCI-H226 is 3.31 µM (inactive); in the assay with IGROV-1 it was 0.128 µM (active); with LOX IMVI it was < 0.0114 µM (active); in the assay on A498, 0.552 µM (active); with SR, 0.0187 µM (active); in the assay with ACHN it was 0.0342 µM (active). Moreover, the GI50 was 0.303 µM (active) in the assay on SF-268; < 0.01 µM (active) with A549; 0.0357 µM (active) in the assay on UACC-62; 7.67 µM (inactive) in the assay on MDA-MB-231; 0.0191 µM (active) with HT-29; 0.0706 µM (active) in the assay with CAKI-1. Besides, the GI50 in the assay with BT-549 is 4.9 µM (inactive); with HOP-92, 0.962 µM (active); with M14 it was 0.064 µM (active); in the assay on PC-3 it was 0.0557 µM (active); with SK-OV-3 it was 7.62 µM (inactive); in the assay on K562, < 0.01 µM (active). For the same compound, the GI50 in the assay with SF-539 is 0.14 µM (active); with KM12, 0.191 µM (active).
